Data on one compound can be found in patent US10123861B2, “Bag for packaging diluted animal semen suitable for artificial insemination, in particular of porcine species; and system comprising same” (IMV TECHNOLOGIES, priority 2014, dated 2018).

The nature of the data set: Amount of triclosan released from the bag into the dilution extender (LC-MS-MS). It is filed as physicochemical. To be noted: bag of Example 3; for Amount of triclosan released into the dose / Proportion of triclosan released into the dose: five days, 17° C.; for Amount of triclosan released into the dose: full dose 70 ml; for Proportion of triclosan released into the dose: relative to approximately 532 μg in parts facing the pouch. The text has this:
A description will now be given of the trials with the bag of Example 3 to determine the amount of triclosan released into the dose of diluted semen such as 27 contained in the pouch such as 14 of that bag.
To simplify the trials, it was not a dose of diluted semen which was preserved in the bag but only dilution extender.
In this case, the dilution extender 53 (hereinafter “extender A”) and a conventional dilution extender containing an antibiotic (hereinafter “extender B”) were used.
One bag of Example 3 is filled with a dose of extender A and one bag of Example 3 with a dose of extender B.
Next the bags are left to rest for five days in the usual preservation conditions, that is to say 17° C. in horizontal position.
Next, the extender contained in each bag is analyzed, in order to determine the concentration of triclosan.
This analysis is made by liquid chromatography tandem mass spectrometry (LC-MS-MS method).
Based on the concentrations obtained, the amount of triclosan released is determined in a full dose provided to be contained in the bag, that is to say 70 ml.
It will be noted that the weight of triclosan taken into account in the sheets such as 11 and 12 of the bag of Example 3 for calculating the proportion released is not the weight of triclosan in the entirety of these sheets, but only in the parts facing the pouch such as 14. Here, these parts weigh approximately 1.835 g (determined after cutting out and weighing). As there are 29 mg of triclosan for 100 g of sheet. The amount of triclosan contained in these parts is approximately 532 μg.

[1] abbreviates: Extender A (without antibiotic).
Where [2] appears, read: Extender B (containing an antibiotic).

Turning to `Oc1cc(Cl)ccc1Oc1ccc(Cl)cc1Cl` [triclosan], under setting [1], the “Amount of triclosan released into the dose” value turned out to be 2.7 µg and the “Proportion of triclosan released into the dose” value is given as 0.5%. Also, under setting [2], the “Amount of triclosan released into the dose” value was found to be 1.9 µg and the “Proportion of triclosan released into the dose” value was determined as 0.35%. Further, for the setting “comment on the release results”, the “amounts released into the dilution extenders” value is given as “around 1%”.
